A word on the IC50: it is the concentration at which inhibition is half-maximal.

The record followed here is patent US8106090B2, “1-amino linked compounds” (Eli Lilly and Company, priority 2005, dated 2012).

Counter-ions that a name gives are not always drawn.

T1 sequence (P27487 29-766 limits assumed): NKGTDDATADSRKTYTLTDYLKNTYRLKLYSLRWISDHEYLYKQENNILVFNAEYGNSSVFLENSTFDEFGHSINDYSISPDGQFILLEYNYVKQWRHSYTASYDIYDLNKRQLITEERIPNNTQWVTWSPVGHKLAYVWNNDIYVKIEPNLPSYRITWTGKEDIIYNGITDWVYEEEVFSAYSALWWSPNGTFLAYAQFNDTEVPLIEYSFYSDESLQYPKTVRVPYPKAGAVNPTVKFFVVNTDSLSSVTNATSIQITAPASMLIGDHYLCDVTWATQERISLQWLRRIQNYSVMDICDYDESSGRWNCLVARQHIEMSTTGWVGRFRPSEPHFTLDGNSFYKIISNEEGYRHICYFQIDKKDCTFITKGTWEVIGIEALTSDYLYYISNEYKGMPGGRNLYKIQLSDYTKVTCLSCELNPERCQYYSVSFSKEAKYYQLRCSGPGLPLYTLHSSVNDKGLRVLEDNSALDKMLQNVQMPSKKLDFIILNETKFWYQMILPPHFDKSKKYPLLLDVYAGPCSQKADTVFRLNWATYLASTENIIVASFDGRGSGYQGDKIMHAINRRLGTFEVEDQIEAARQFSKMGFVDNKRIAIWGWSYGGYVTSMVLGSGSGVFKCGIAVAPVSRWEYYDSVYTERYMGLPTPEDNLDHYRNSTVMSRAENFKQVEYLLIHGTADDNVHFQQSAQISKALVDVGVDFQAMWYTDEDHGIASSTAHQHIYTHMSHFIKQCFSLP

This assay has as its target T1, human recombinant DPIV enzyme (Homo sapiens, UniProt P27487).
T1 construct: Secreted DPIV (lacking membrane anchor) was enriched from HEK293 cell culture supernatant; made in house; host or cells: HEK293
The experiment in a line: Human recombinant DPIV activity assay (fluorometric end point, Gly-Pro-AMC substrate). It is filed as biochemical. The settings on record: enriched human recombinant DPIV, Gly-Pro-AMC 0.02 mM, 12 points concentration response curve, duplicates. The method, then:
Human Recombinant DPIV Activity Assay
The DPIV assay used was a fluorometric end point assay (excitation 355 nm; emission 460 nm) using enriched human recombinant DPIV enzyme (21.3 μU/μl), and Gly-Pro-AMC (Bachem I-1225) as substrate (0.02 mM). Secreted DPIV (lacking membrane anchor) was enriched from HEK293 cell culture supernatant by ultrafiltration, ultra-centrifugation, and size-exclusion chromatography. IC50 values of the compounds were calculated based on a 12 points concentration response curve. Each concentration was measured as duplicates. The assay was validated by plate variability and conformity, inter-plate variability, signal window, and minimum significant ration of IC50. A MSR was calculated based on a test/retest analysis and a retrospective analysis. The MSR value is 1.8.
Regarding `CN(C[C@H](O)[C@H](N)Cc1ccccc1)S(C)(=O)=O` [Example 21, N-[(2S,3R)-3-Amino-2-hydroxy-4-phenyl-butyl]-N-methyl-methanesulfonamide Hydrochloride], the IC50 came to 9.76 µM.

`N[C@H](Cc1ccccc1)[C@@H](O)Cn1cccn1` [Example 13, (2S,3R)-3-Amino-4-phenyl-1-pyrazol-1-yl-butan-2-ol Hydrochloride]: the IC50 stood at 2.99 µM.

On to `N[C@H](Cc1ccccc1)[C@@H](O)Cn1cnc2ccccc21` [Example 15, (2S,3R)-3-Amino-1-benzimidazol-1-yl-4-phenyl-butan-2-ol Hydrochloride], for which the IC50 stood at 4.33 µM.

Regarding `N[C@H](Cc1ccccc1)[C@@H](O)CN1CCCC(c2ccccc2)C1` (stereo partly drawn) [Example 6, (2S,3R)-3-Amino-4-phenyl-1-([3R,S]-3-phenyl-piperidin-1-yl)-butan-2-ol Dihydrochloride], the IC50 is 2.73 µM.
